The values that follow come from patent US11513122B2, “Predicting response to PD-1 axis inhibitors” (Hoffmann-La Roche Inc., priority 2016, dated 2022).

The subject of assay [1] is MC38 cells (colorectal cancer cell lines). Nature of the assay: MC38 tumor model in CD11c-DTR mice with or without DC depletion by DT. The format is in vivo. To be noted: MC38 s.c.; DT 100 ng at day 6; anti-PD-L1 Ab 10 mg/kg from day 7, weekly; FIG. 6B. The procedure:
To further study the contribution of DCs by PD-L1 blockade in mediating anti-tumor immunity, we obtained the CD11c-DTR mice from the Jackson laboratory (B6.FVB-Tg(Itgax-DTR/EGFP)57Lan/J, Cat. No. 004509). […]. When tumor is palpable at day 6, mice were treated with 100 ng of DT (Sigma-Aldrich) or left untreated. At day 7, a anti-PD-L1 Ab (10 mg/kg, murine IgG1, clone 6E11, Genentech) was given to mice, followed by weekly injection (FIG. 6A). […] Our data support the concept that DCs are needed for PD-L1 Ab to achieve its maximum anti-tumor efficacy.

Assay [2] deals with patients with non-small cell lung cancer (NSCLC). Nature of the assay: Phase II clinical trial POPLAR (NCT01903993), overall survival by DC gene expression. The format is in vivo, human. An excerpt: Further to Example 3, we analyzed 193 patients with non-small cell lung cancer (NSCLC) previously treated, then received atezolizumab or docetaxel in a Phase II clinical trial POPLAR. This study is registered with ClinicalTrials.gov, number NCT01903993. POPLAR is a multicentre, randomised, open-label phase II trial, done at 61 academic medical centers and community oncology practices across 13 countries in Europe and North America. The study was done in full accordance with the guidelines for Good Clinical Practice and the Declaration of Helsinki. Protocol (and modification) approval was obtained from an independent ethics committee for each site (Fehrenbacher L, et. Al., Lancet 2016). Among those patients with squamous or non-squamous NSCLC, 96 received Docetaxel, and 92 received atezolizumab, and the rest of 5 left untreated (Table 1).
Tumor specimens at baseline were archived and taken for gene expression profiling performed by RNA Sequencing (RNA-Seq). Based on literature (Merad M. et al, Ann. Rev. Immunol. 2013), we selected a list of genes consisting of XCR1, IRF8, BATF3, and FLT3, which are associated with human dendritic cell phenotypes and development with cross-presenting specialization. Normalized read counts of each selected gene across the whole cohort were divided at medium expression level for the higher expression ones (+) and lower/no expression ones (−). Using in-house R scripts the two defined subgroups were plotted against the Kaplan-Meier survival curves. In addition, Cox-regression analysis was used to calculate the hazard ratio (HR) between the two patient groups divided based on positive and negative gene expression.
We also investigated the impact of multiple genes involved in human DC development and function (XCR1, BATF3, FLT3, and IRF8) by defining a cumulative DC gene score (DC score) reflecting the cumulative expression of these marker genes. Each gene's expression is first standardized by a z-score:
where μ and σ are estimated in the entire cohort or in the selected subgroups. After the standardization step, these standardized z-score values are averaged across genes within each patient. The cohort was corrected for the smoking status, ECOG and sex of patient. Then the score was plotted against the Kaplan-Meier survival curves.

Assay [3] has as its system patients with renal cell carcinoma. Kind of assay: Phase I clinical trial (NCT01375842), response and survival by DC gene expression. The format is in vivo, human. The text has this: We hypothesized that patients with DC abundance may respond to PD-L1 blockade leading to beneficial effect in patients who received the treatment. We analyzed 56 patients with renal cell carcinoma who received Atezolizumab in a Phase I clinical trial (NCT01375842) (www.clinicaltrials.gov). This study was sponsored by Genentech Inc., a member of the Roche Group, which provided the study drug. The protocol and its amendments were approved by the relevant institutional review boards or ethics committees, and all participants provided written informed consent. This study was conducted in accordance with the Declaration of Helsinki and International Conference on Harmonization Guidelines for Good Clinical Practice. In total, 56 patients were analyzed. Based on the “Best Confirmed Overall Response by the Investigator” we observed 6 responders (CR=1; PR=5) and 47 non-responder (PD=21; SD=26) as well as 3 patients without known information (FIG. 7).
Tumor specimens at baseline were archived and taken for gene expression profiling performed by RNA Sequencing (RNA-Seq). Based on literature (Merad, ann rev immunol 2013), we selected a list of genes consisting of XCR1, IRF8, BATF3 and FLT3, which are associated with human dendritic cell development with cross-presenting specialization. The log 2 RPKM expression values of each selected gene across the whole cohort were divided at medium expression level for the higher expression ones (+) and lower/no expression ones (−). Using in-house R scripts the two defined subgroups were plotted against the Kaplan-Meier survival curves. […] The medium survival between patients with higher expression versus lower/no expression were separated for at least 15.6 months or longer (FIG. 9).
As several genes linked to human dendritic cell development were associated with the survival advantages, we investigated the impact of multiple genes involved in human DC development and function by defining a cumulative DC gene score (DC score) reflecting the cumulative expression of these marker genes. Each gene's expression is first standardized by a z-score: z=(x−μ)/σ,
where μ and σ are estimated in the entire cohort or in the selected subgroups. After the standardization step, these standardized z-score values are averaged across genes within each patient. The RCC cohort was corrected for the sex of patient as well as the Stage at Initial Diagnosis.

Assay [4] concerns human DCs. Nature of the assay: Maturation of monocyte-derived DCs by LPS, PD-1/PD-L1 staining by flow cytometry. The format is cell-based. To be noted: LPS 10 ng/mL, FIGS. 2A-2B. As to the method: To address the potential regulation of PD-1 and its ligands on human DCs, monocyte-derived DCs were generated using the classical method. Briefly, Peripheral Blood Mononuclear Cells (PBMCs) were isolated from buffy-coats (Blutspende, Schlieren) from healthy human donors, using Ficoll-Paque™ Plus (GE Healthcare, #17-1440-03) density gradient. Rings of PBMCs were collected and washed with PBS two times by centrifugation (5′ at 763 g; 5′ at 600 g). A lysis was conducted using 10 mL of BD Pharm Lyse™ (BD Biosciences, #555899) diluted at 1× with sterile water and incubated 1,5 minute at room temperature. Two washes with Phosphate-buffered saline 1× (PBS; Gibco® by live technologies™, #20012-019) were conducted by centrifugation (8′ at 135 g). Cells number and quality were evaluated using Cell counter (Beckman Coulter®). Separate unrelated donors were used for each independent experiment. Monocytes were isolated from fresh PBMCs by negative selection using Human monocyte enrichment kit (StemCell, #19059) in MACs buffer (1450 mL Automacs™ Rinsing solution, Miltenyi #130-091-222; and 75 mL MACS BSA stock Solution, Miltenyi #130-091-376) according to the manufacturer's instructions. […] The cells were then stained with anti-PD-1-PE-Cy7 and anti-PD-L1-APC Abs (BioLegend®; #329917, #329707), and measured by flow cytometry (BD). […]
For orientation: Flow cytometry measures light scatter and fluorescence of single cells or particles in a stream.

[5] abbreviates: NSCLC, XCR1 divided at medium expression level.

Turning to diphtheria toxin [DT], in assay [1], the tumor growth result is on record as “did not impact the tumor growth”.
In the case of atezolizumab, in assay [2] (NSCLC), the “separation of medium OS, higher versus lower/no XCR1 expression” value is roughly 7 months. In assay [2] (setting [5]), the “medium overall survival (mOS), patients with higher XCR1 expression” value is 15.5 month and the “medium overall survival (mOS), patients with lower/no XCR1 expression” value is on record as 8.6 month. Besides, in assay [2] (NSCLC, all patients), the “medium OS, patients with higher DC signature score” value is 16.4 months; the “medium OS, patients with lower/no DC signature expression” value was 8.5 months; the “separation of medium OS, higher versus lower/no DC signature expression” value is on record as 7.9 months. Besides, the “HR, higher versus lower DC signature score” value in assay [2] (NSCLC, all patients, p=0.04, FIG. 11) is 0.54. The “hazard ratio (HR) by Cox-regression analysis, higher versus lower/no XCR1 expression” value in assay [2] (NSCLC, p=0.077) was determined as 0.6. For the same molecule, in assay [2] (PD-L1+ patients), the “median OS, patients with lower/no expression” value is reported as 8.4 months and the “medium OS, patients with higher DC gene score” value was “not reached”. In assay [2] (PD-L1+ patients (TC3, TC2, IC3, IC2), p=0.03, FIG. 12), the “HR, higher versus lower DC signature score” value was determined as 0.25. For the same molecule, in assay [3] (56 patients analyzed), the CR came out at 1, the PD is listed as 21, the PR came to 5 and the non-responder is 47. The “responders (Best Confirmed Overall Response by the Investigator)” value in assay [3] (56 patients analyzed, FIG. 7) worked out at 6. Besides, in assay [3] (RCC, p=0.03, FIG. 10), the “HR, higher versus lower DC score” value is given as 0.38. For the same molecule, the “medium survival, patients with higher DC score” value in assay [3] (cumulative DC gene score (XCR1, IRF8, BATF3, FLT3), FIG. 10) was “without reaching medium survival”. For the same molecule, the “separation of medium survival between patients with higher expression versus lower/no expression” value in assay [3] (single genes XCR1, IRF8, BATF3, FLT3, FIG. 9) is given as “at least 15.6 months”.
`CC(=O)O[C@@]12CO[C@@H]1C[C@H](O)[C@@]1(C)C(=O)[C@H](O)C3=C(C)[C@@H](OC(=O)[C@H](O)[C@@H](NC(=O)OC(C)(C)C)c4ccccc4)C[C@@](O)([C@@H](OC(=O)c4ccccc4)[C@H]21)C3(C)C` [docetaxel]: the “correlation of XCR1 expression to survival” value in assay [2] (NSCLC) is “no correlation”. Also, the “correlation of DC genes expression to survival” value in assay [2] (PD-L1+ patients) is “no correlation”.
On to lipopolysaccharide [LPS], for which, in assay [4], the “PD-1 expression on DCs upon maturation” value is “downregulated” and the “PD-L1 expression on DCs upon maturation” value is given as “upregulated”.
